These results are taken from patent US7932270B2 (Cytokinetics, Inc., priority 2006, dated 2011).

T1 sequence (P02607 2-151): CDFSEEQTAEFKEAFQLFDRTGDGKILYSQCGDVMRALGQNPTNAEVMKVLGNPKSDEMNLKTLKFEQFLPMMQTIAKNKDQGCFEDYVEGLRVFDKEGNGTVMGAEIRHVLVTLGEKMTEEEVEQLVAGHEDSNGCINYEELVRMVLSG
T1 sequence (P10587 84-789): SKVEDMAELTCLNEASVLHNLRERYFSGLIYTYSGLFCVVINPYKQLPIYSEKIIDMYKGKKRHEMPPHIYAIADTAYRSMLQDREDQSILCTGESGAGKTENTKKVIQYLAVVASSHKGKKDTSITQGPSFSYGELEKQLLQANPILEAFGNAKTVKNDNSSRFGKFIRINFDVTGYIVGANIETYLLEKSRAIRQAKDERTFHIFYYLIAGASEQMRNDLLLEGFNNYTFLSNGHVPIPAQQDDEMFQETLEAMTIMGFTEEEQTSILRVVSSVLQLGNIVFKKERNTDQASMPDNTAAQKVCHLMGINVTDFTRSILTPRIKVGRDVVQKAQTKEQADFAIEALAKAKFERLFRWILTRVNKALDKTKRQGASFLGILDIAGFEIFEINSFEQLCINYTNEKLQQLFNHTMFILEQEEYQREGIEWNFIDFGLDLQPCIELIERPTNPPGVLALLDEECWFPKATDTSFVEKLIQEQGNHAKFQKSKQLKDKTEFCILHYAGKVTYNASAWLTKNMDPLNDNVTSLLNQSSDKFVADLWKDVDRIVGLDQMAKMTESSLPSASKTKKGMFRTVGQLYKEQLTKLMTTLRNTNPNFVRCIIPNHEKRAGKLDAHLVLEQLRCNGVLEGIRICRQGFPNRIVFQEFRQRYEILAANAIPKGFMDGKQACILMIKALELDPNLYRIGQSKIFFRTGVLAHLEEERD

This test addresses T1, chicken gizzard smooth muscle myosin subfragment-1 chemically crosslinked to cardiac or skeletal actin (Gallus gallus, UniProt P10587).
T1 construct: chicken gizzard smooth muscle myosin subfragment-1; from tissue; host or cells: chicken gizzard
The experiment in a line: Smooth muscle myosin ATPase dose response assay (pyruvate kinase/horseradish peroxidase/pyruvate oxidase-coupled, amplex red fluorescence). The following applies: read-out: IC50 Arithmetic Mean. The format is biochemical. The essentials: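 Readout is amplex red signal from coupled ATPase of actin-crosslinked gizzard myosin S1 (0.15 mM ATP, 12 mM K-PIPES, pH 7.00). IC50 is the half-maximal activity point of a four-parameter Hill fit.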
As a reminder, the IC50 is the point on the concentration scale where inhibition reaches its midpoint. Turning to `O=C(NCc1cccnc1)c1ccc(-c2ccccc2)nc1NCCc1cccc(F)c1` [(2-{[2-(3-fluorophenyl)ethyl]amino}-6-phenyl(3-pyridyl))-N-(3-pyridylmethyl)carboxamide], the half-maximal inhibitory concentration (IC50) amounted to 63 nM.

Regarding `O=C(NCc1cccnc1)c1cc(C(=O)NCc2cccnc2)c(-c2ccccc2)nc1NCCc1cccc(F)c1` [(2-{[2-(3-fluorophenyl)ethyl]amino}-6-phenyl-5-[N-(3-pyridylmethyl)carbamoyl](3-pyridyl))-N-(3-pyridylmethyl)carboxamide], the IC50 was 56000 nM.

`O=C(NCc1cccnc1)c1ccc(-c2cc[nH]n2)nc1NCCc1cccc(F)c1` [(2-{[2-(3-fluorophenyl)ethyl]amino}-6-pyrazol-3-yl(3-pyridyl))-N-(3-pyridylmethyl)carboxamide]: the IC50 is 124 nM.

Consider `O=C(NCc1cc[nH]n1)c1ccc(-c2cc[nH]n2)nc1NCCc1cccc(F)c1` [(2-{[2-(3-fluorophenyl)ethyl]amino}-6-pyrazol-3-yl(3-pyridyl))-N-(pyrazol-3-ylmethyl)carboxamide], for which the 50% inhibitory concentration (IC50) was found to be 92 nM.

For `O=C(NCc1cccnc1)c1ccc(-c2cn[nH]c2)nc1NCCc1cccc(F)c1` [(2-{[2-(3-fluorophenyl)ethyl]amino}-6-pyrazol-4-yl(3-pyridyl))-N-(3-pyridylmethyl)carboxamide], the IC50 is 44 nM.

In the case of `O=C(NCc1cc[nH]n1)c1ccc(-c2cn[nH]c2)nc1NCCc1cccc(F)c1` [(2-{[2-(3-fluorophenyl)ethyl]amino}-6-pyrazol-4-yl(3-pyridyl))-N-(pyrazol-3-ylmethyl)carboxamide], the IC50 was 34 nM.

For the molecule `O=C(NCc1cccnc1NCCO)c1ccc(-c2cn[nH]c2)nc1NCCc1cccc(F)c1` [(2-{[2-(3-fluorophenyl)ethyl]amino}-6-pyrazol-4-yl(3-pyridyl))-N-({2-[(2-hydroxyethyl)amino](3-pyridyl)}methyl)carboxamide], the IC50 is 65 nM.

Take `O=C(NCc1cccc(NCCO)n1)c1ccc(-c2cn[nH]c2)nc1NCCc1cccc(F)c1` [(2-{[2-(3-fluorophenyl)ethyl]amino}-6-pyrazol-4-yl(3-pyridyl))-N-({6-[(2-hydroxyethyl)amino](2-pyridyl)}methyl)carboxamide]: the IC50 was 39 nM.

As for `O=C(NCC1CCNC1=O)c1ccc(-c2cn[nH]c2)nc1NCCc1cccc(F)c1` (centres unmarked) [(2-{[2-(3-fluorophenyl)ethyl]amino}-6-pyrazol-4-yl(3-pyridyl))-N-[(2-oxopyrrolidin-3-yl)methyl]carboxamide], the IC50 turned out to be 180 nM.

With `O=C1CNCC(CNC(=O)c2ccc(-c3cn[nH]c3)nc2NCCc2cccc(F)c2)N1` (centres unmarked) [(2-{[2-(3-fluorophenyl)ethyl]amino}-6-pyrazol-4-yl(3-pyridyl))-N-[(6-oxopiperazin-2-yl)methyl]carboxamide], the IC50 was determined as 973 nM.

For `O=C1CCCCC(CNC(=O)c2ccc(-c3cn[nH]c3)nc2NCCc2cccc(F)c2)N1` (centres unmarked) [(2-{[2-(3-fluorophenyl)ethyl]amino}-6-pyrazol-4-yl(3-pyridyl))-N-[(7-oxoazaperhydroepin-2-yl)methyl]carboxamide], the half-inhibitory concentration (IC50) was determined as 687 nM.

Regarding `O=C1CNCC(CNC(=O)c2ccc(-c3ccn[nH]3)nc2NCCc2cccc(F)c2)N1` (centres unmarked) [(2-{[2-(3-fluorophenyl)ethyl]amino}-6-pyrazol-5-yl(3-pyridyl))-N-[(6-oxopiperazin-2-yl)methyl]carboxamide], the IC50 worked out at 6950 nM.

Regarding `COc1cccc(CCNc2nc(-c3ccccc3)ccc2C(=O)NCc2cccnc2)c1` [(2-{[2-(3-methoxyphenyl)ethyl]amino}-6-phenyl(3-pyridyl))-N-(3-pyridylmethyl)carboxamide], the IC50 is 269 nM.

As to `Cc1cccc(CCNc2nc(-c3ccccc3)ccc2C(=O)NCc2cccnc2)c1` [(2-{[2-(3-methylphenyl)ethyl]amino}-6-phenyl(3-pyridyl))-N-(3-pyridylmethyl)carboxamide], the IC50 is 450 nM.

For `C=CCNC(=O)c1ccc(-c2ccccc2)nc1NCCc1cccc(C)c1` [(2-{[2-(3-methylphenyl)ethyl]amino}-6-phenyl(3-pyridyl))-N-prop-2-enylcarboxamide], the IC50 amounted to 3740 nM.

As for `Nc1ccc(CCNc2nc(-c3ccccc3)ccc2C(=O)NCc2cccnc2)cc1` [(2-{[2-(4-aminophenyl)ethyl]amino}-6-phenyl(3-pyridyl))-N-(3-pyridylmethyl)carboxamide], the IC50 was 27100 nM.

As to `O=C(NCc1cccnc1)c1ccc(-c2ccccc2)nc1NCCc1ccc(Cl)cc1` [(2-{[2-(4-chlorophenyl)ethyl]amino}-6-phenyl(3-pyridyl))-N-(3-pyridylmethyl)carboxamide], the IC50 stood at 6680 nM.

Regarding `O=C(NCc1cccnc1)c1ccc(-c2ccccc2)nc1NCCc1ccc(F)cc1` [(2-{[2-(4-fluorophenyl)ethyl]amino}-6-phenyl(3-pyridyl))-N-(3-pyridylmethyl)carboxamide], the IC50 turned out to be 1610 nM.

For `O=C(NCc1cccnc1)c1ccc(-c2ccccc2)nc1NCCc1ccc(O)cc1` [(2-{[2-(4-hydroxyphenyl)ethyl]amino}-6-phenyl(3-pyridyl))-N-(3-pyridylmethyl)carboxamide], the IC50 was 36700 nM.

As to `O=C(NCc1cccnc1)c1ccc(-c2ccccc2)nc1NCC1(O)CCCCC1` [(2-{[(hydroxycyclohexyl)methyl]amino}-6-phenyl(3-pyridyl))-N-(3-pyridylmethyl)carboxamide], the IC50 came to 7810 nM.

Turning to `CNC(=O)/C=C/c1ccc(-c2ccccc2)nc1NCCc1cccc(F)c1` [(2E)-3-(2-{[2-(3-fluorophenyl)ethyl]amino}-6-phenyl(3-pyridyl))-N-methylprop-2-enamide], the IC50 is 57400 nM.

Regarding `CNC(=O)[C@@H](CO)NC(=O)c1ccc(-c2ccccc2C#N)nc1NCCc1cccc(F)c1` [(2R)-2-[(6-(2-cyanophenyl)-2-{[2-(3-fluorophenyl)ethyl]amino}(3-pyridyl))carbonylamino]-3-hydroxy-N-methylpropanamide], the IC50 stood at 544 nM.

For the molecule `CNC(=O)[C@@H](C)NC(=O)c1ccc(-c2ccccc2C#N)nc1NCCc1cccc(F)c1` [(2R)-2-[(6-(2-cyanophenyl)-2-{[2-(3-fluorophenyl)ethyl]amino}(3-pyridyl))carbonylamino]-N-methylpropanamide], the IC50 turned out to be 1270 nM.

In the case of `CNC(=O)[C@H](N)CCNC(=O)c1ccc(-c2ccccc2C#N)nc1NCCc1cccc(F)c1` [(2R)-2-amino-4-[(6-(2-cyanophenyl)-2-{[2-(3-fluorophenyl)ethyl]amino}(3-pyridyl))carbonylamino]-N-methylbutanamide], the IC50 is 12900 nM.

Consider `CNC(=O)[C@H](C)CNC(=O)c1cc(F)c(-c2cnn(C)c2)nc1NCCc1cccc(F)c1` [(2R)-3-[(5-fluoro-2-{[2-(3-fluorophenyl)ethyl]amino}-6-(1-methylpyrazol-4-yl)(3-pyridyl))carbonylamino]-2-methyl-N-methylpropanamide], for which the IC50 amounted to 130 nM.

In the case of `C[C@H](CNC(=O)c1cc(F)c(-c2cnn(C)c2)nc1NCCc1cccc(F)c1)C(=O)O` [(2R)-3-[(5-fluoro-2-{[2-(3-fluorophenyl)ethyl]amino}-6-(1-methylpyrazol-4-yl)(3-pyridyl))carbonylamino]-2-methylpropanoic acid], the IC50 turned out to be 3840 nM.

On to `CNC(=O)[C@@H](CN)NC(=O)c1ccc(-c2ccccc2C#N)nc1NCCc1cccc(F)c1` [(2R)-3-amino-2-[(6-(2-cyanophenyl)-2-{[2-(3-fluorophenyl)ethyl]amino}(3-pyridyl))carbonylamino]-N-methylpropanamide], for which the IC50 was 274 nM.

With `N#Cc1ccccc1-c1ccc(C(=O)NC[C@@H](COC(=O)CN)NC(=O)CN)c(NCCc2cccc(F)c2)n1` [(2S)-2-(2-aminoacetylamino)-3-[(6-(2-cyanophenyl)-2-{[2-(3-fluorophenyl)ethyl]amino}(3-pyridyl))carbonylamino]propyl 2-aminoacetate], the IC50 was determined as 5700 nM.

Regarding `CNC(=O)[C@H](CNC(=O)c1ccc(-c2ccccc2C#N)nc1NCCc1cccc(F)c1)NC(C)=O` [(2S)-2-(acetylamino)-3-[(6-(2-cyanophenyl)-2-{[2-(3-fluorophenyl)ethyl]amino}(3-pyridyl))carbonylamino]-N-methylpropanamide], the IC50 stood at 5550 nM.

On to `CNC(=O)[C@H](CO)NC(=O)c1ccc(-c2ccccc2C#N)nc1NCCc1cccc(F)c1` [(2S)-2-[(6-(2-cyanophenyl)-2-{[2-(3-fluorophenyl)ethyl]amino}(3-pyridyl))carbonylamino]-3-hydroxy-N-methylpropanamide], for which the IC50 worked out at 1120 nM.

As to `CNC(=O)[C@H](C)NC(=O)c1ccc(-c2ccccc2C#N)nc1NCCc1cccc(F)c1` [(2S)-2-[(6-(2-cyanophenyl)-2-{[2-(3-fluorophenyl)ethyl]amino}(3-pyridyl))carbonylamino]-N-methylpropanamide], the IC50 worked out at 985 nM.

Take `CN(C)C(=O)[C@@H](N)CNC(=O)c1ccc(-c2ccccc2C#N)nc1NCCc1cccc(F)c1` [(2S)-2-amino-3-[(6-(2-cyanophenyl)-2-{[2-(3-fluorophenyl)ethyl]amino}(3-pyridyl))carbonylamino]-N,N-dimethylpropanamide]: the IC50 is 8180 nM.

Consider `CNC(=O)[C@@H](N)CNC(=O)c1ccc(-c2ccccc2C#N)nc1NCCc1cccc(F)c1` [(2S)-2-amino-3-[(6-(2-cyanophenyl)-2-{[2-(3-fluorophenyl)ethyl]amino}(3-pyridyl))carbonylamino]-N-methylpropanamide], for which the IC50 amounted to 2320 nM.

As for `N#Cc1ccccc1-c1ccc(C(=O)NC[C@H](N)C(=O)O)c(NCCc2cccc(F)c2)n1` [(2S)-2-amino-3-[(6-(2-cyanophenyl)-2-{[2-(3-fluorophenyl)ethyl]amino}(3-pyridyl))carbonylamino]propanoic acid], the IC50 amounted to 9760 nM.

Take `CNC(=O)[C@@H](N)CCNC(=O)c1ccc(-c2ccccc2C#N)nc1NCCc1cccc(F)c1` [(2S)-2-amino-4-[(6-(2-cyanophenyl)-2-{[2-(3-fluorophenyl)ethyl]amino}(3-pyridyl))carbonylamino]-N-methylbutanamide]: the IC50 was 5020 nM.
